Experimental data from patent publication US10206394B2, “Herbicidal compounds” (Syngenta Participations AG, priority 2014, dated 2019).
Where two headings read alike, the source gives them in different places.

Legend:
Test in all cases: Glasshouse assay for herbicidal activity (pre- and post-emergence), percentage phytotoxicity
Format in all cases: in vivo
Avena fatua (AVEFA) = conditions: Avena fatua
Summary of the method: (§1)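 Pot-grown, standard soil. PRE: spray 1 d post-sowing; POST: ~12 d. Glasshouse 24/18 °C (warm spp.) / 20/16 °C (cool spp.), 16 h light, 65% RH, watered 2×/day. Visual % damage, 20 DAA PRE, 15 DAA POST.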

[1] = system: Alopecurus myosuroides (ALOMY); conditions: Alopecurus myosuroides
Summary of the method: as §1

Lolium perenne (LOLPE) = conditions: Lolium perenne
Summary of the method: as §1

[2] = system: Echinochloa crus-galli (ECHCG); conditions: Echinochloa crus-galli
Summary of the method: as §1

[3] = post-emergence, 360 h, POST-emergence, rate 250 g/ha, visual score 15 DAA (100%=total damage, 0%=no damage), read-out: Post-emergence herbicidal activity (percentage phytotoxicity) AVEFA POST
[4] = pre-emergence, 480 h, PRE-emergence, rate 250 g/ha, visual score 20 DAA (100%=total damage, 0%=no damage), read-out: Pre-emergence herbicidal activity (percentage phytotoxicity) AVEFA PRE
[5] = post-emergence, 360 h, POST-emergence, rate 250 g/ha, visual score 15 DAA (100%=total damage, 0%=no damage), read-out: Post-emergence herbicidal activity (percentage phytotoxicity) ALOMY POST
[6] = pre-emergence, 480 h, PRE-emergence, rate 250 g/ha, visual score 20 DAA (100%=total damage, 0%=no damage), read-out: Pre-emergence herbicidal activity (percentage phytotoxicity) ALOMY PRE
[7] = post-emergence, 360 h, POST-emergence, rate 250 g/ha, visual score 15 DAA (100%=total damage, 0%=no damage), read-out: Post-emergence herbicidal activity (percentage phytotoxicity) LOLPE POST
[8] = pre-emergence, 480 h, PRE-emergence, rate 250 g/ha, visual score 20 DAA (100%=total damage, 0%=no damage), read-out: Pre-emergence herbicidal activity (percentage phytotoxicity) LOLPE PRE
[9] = post-emergence, 360 h, POST-emergence, rate 250 g/ha, visual score 15 DAA (100%=total damage, 0%=no damage), read-out: Post-emergence herbicidal activity (percentage phytotoxicity) ECHCG POST
[10] = pre-emergence, 480 h, PRE-emergence, rate 250 g/ha, visual score 20 DAA (100%=total damage, 0%=no damage), read-out: Pre-emergence herbicidal activity (percentage phytotoxicity) ECHCG PRE
[11] = post-emergence, 360 h, Rate 250 g/ha, post-emergence, visual assessment 15 DAA, 100%=total damage, 0%=no damage, read-out: Post-emergence herbicidal activity (percentage phytotoxicity) AVEFA POST
[12] = pre-emergence, 480 h, Rate 250 g/ha, pre-emergence, visual assessment 20 DAA, 100%=total damage, 0%=no damage, read-out: Pre-emergence herbicidal activity (percentage phytotoxicity) AVEFA PRE
[13] = post-emergence, 360 h, Rate 250 g/ha, post-emergence, visual assessment 15 DAA, 100%=total damage, 0%=no damage, read-out: Post-emergence herbicidal activity (percentage phytotoxicity) ALOMY POST
[14] = pre-emergence, 480 h, Rate 250 g/ha, pre-emergence, visual assessment 20 DAA, 100%=total damage, 0%=no damage, read-out: Pre-emergence herbicidal activity (percentage phytotoxicity) ALOMY PRE
[15] = post-emergence, 360 h, Rate 250 g/ha, post-emergence, visual assessment 15 DAA, 100%=total damage, 0%=no damage, read-out: Post-emergence herbicidal activity (percentage phytotoxicity) LOLPE POST
[16] = pre-emergence, 480 h, Rate 250 g/ha, pre-emergence, visual assessment 20 DAA, 100%=total damage, 0%=no damage, read-out: Pre-emergence herbicidal activity (percentage phytotoxicity) LOLPE PRE
[17] = post-emergence, 360 h, Rate 250 g/ha, post-emergence, visual assessment 15 DAA, 100%=total damage, 0%=no damage, read-out: Post-emergence herbicidal activity (percentage phytotoxicity) ECHCG POST
[18] = pre-emergence, 480 h, Rate 250 g/ha, pre-emergence, visual assessment 20 DAA, 100%=total damage, 0%=no damage, read-out: Pre-emergence herbicidal activity (percentage phytotoxicity) ECHCG PRE

Row | SMILES | pest or weed control at 250 g/ha (Avena fatua (AVEFA); [3]) [%] | pest or weed control at 250 g/ha (Avena fatua (AVEFA); [4]) [%] | pest or weed control at 250 g/ha [1, 5] [%] | pest or weed control at 250 g/ha [1, 6] [%] | pest or weed control at 250 g/ha (Lolium perenne (LOLPE); [7]) [%] | pest or weed control at 250 g/ha (Lolium perenne (LOLPE); [8]) [%] | pest or weed control at 250 g/ha [2, 9] [%] | pest or weed control at 250 g/ha [2, 10] [%] | pest or weed control at 250 g/ha (Avena fatua (AVEFA); [11]) [%] | pest or weed control at 250 g/ha (Avena fatua (AVEFA); [12]) [%] | pest or weed control at 250 g/ha [1, 13] [%] | pest or weed control at 250 g/ha [1, 14] [%] | pest or weed control at 250 g/ha (Lolium perenne (LOLPE); [15]) [%] | pest or weed control at 250 g/ha (Lolium perenne (LOLPE); [16]) [%] | pest or weed control at 250 g/ha [2, 17] [%] | pest or weed control at 250 g/ha [2, 18] [%] | also measured
1 | COc1ccc(CNC(=O)CC2CC(=O)C(c3c(C)cc(C)cc3C)C2=O)cc1 (stereo not drawn) [Compound B18] | – | – | – | – | – | – | – | – | – | – | – | – | – | – | – | – | pest or weed control at 250 g/ha (Avena fatua (AVEFA); post-emergence, 360 h, 250 g/ha, post-emergence, 15 DAA, visual assessment (100%=total damage, 0%=no damage), read-out: Post-emergence herbicidal activity (percentage phytotoxicity) AVEFA POST): 90%; pest or weed control at 250 g/ha (Avena fatua (AVEFA); pre-emergence, 480 h, 250 g/ha, pre-emergence, 20 DAA, visual assessment (100%=total damage, 0%=no damage), read-out: Pre-emergence herbicidal activity (percentage phytotoxicity) AVEFA PRE): 80%; pest or weed control at 250 g/ha ([1]; post-emergence, 360 h, 250 g/ha, post-emergence, 15 DAA, visual assessment (100%=total damage, 0%=no damage), read-out: Post-emergence herbicidal activity (percentage phytotoxicity) ALOMY POST): 80%; pest or weed control at 250 g/ha ([1]; pre-emergence, 480 h, 250 g/ha, pre-emergence, 20 DAA, visual assessment (100%=total damage, 0%=no damage), read-out: Pre-emergence herbicidal activity (percentage phytotoxicity) ALOMY PRE): 70%; pest or weed control at 250 g/ha (Lolium perenne (LOLPE); post-emergence, 360 h, 250 g/ha, post-emergence, 15 DAA, visual assessment (100%=total damage, 0%=no damage), read-out: Post-emergence herbicidal activity (percentage phytotoxicity) LOLPE POST): 100%; pest or weed control at 250 g/ha (Lolium perenne (LOLPE); pre-emergence, 480 h, 250 g/ha, pre-emergence, 20 DAA, visual assessment (100%=total damage, 0%=no damage), read-out: Pre-emergence herbicidal activity (percentage phytotoxicity) LOLPE PRE): 100%; pest or weed control at 250 g/ha ([2]; post-emergence, 360 h, 250 g/ha, post-emergence, 15 DAA, visual assessment (100%=total damage, 0%=no damage), read-out: Post-emergence herbicidal activity (percentage phytotoxicity) ECHCG POST): 90%; pest or weed control at 250 g/ha ([2]; pre-emergence, 480 h, 250 g/ha, pre-emergence, 20 DAA, visual assessment (100%=total damage, 0%=no damage), read-out: Pre-emergence herbicidal activity (percentage phytotoxicity) ECHCG PRE): 90%
2 | Cc1cc(-c2ncc(Cl)cc2F)cc(C)c1C1C(=O)CC(CC(=O)NCC(C)(C)C)C1=O (stereo not drawn) [Compound B178] | 90 | 90 | 100 | 100 | 100 | 100 | 100 | 100 | – | – | – | – | – | – | – | – | –
3 | CCc1cc(OCC(F)(F)F)cc(C)c1C1C(=O)CC(CC(=O)NC(C)(C)C)C1=O (stereo not drawn) [Compound B165] | 100 | 100 | 100 | 100 | 100 | 100 | 100 | 100 | – | – | – | – | – | – | – | – | –
4 | C#CC(C)(C)NC(=O)CC1CC(=O)C(c2c(C)cc(-c3ccc(F)cn3)cc2C)C1=O (stereo not drawn) [Compound B388] | – | – | – | – | – | – | – | – | 100 | 90 | 90 | 90 | 90 | 90 | 100 | 100 | –
5 | Cc1cc(C)c(C2=C(OC(=O)C(C)(C)C)CC(CC(=O)N(C(=O)C(C)(C)C)C3COC3)C2=O)c(C)c1 (stereo not drawn) [Compound P12] | – | – | – | – | – | – | – | – | 60 | 0 | 80 | 20 | 80 | 60 | 60 | 70 | –
6 | CC#Cc1cc(C)c(C2C(=O)CC(CC(=O)NC(C)(C)C)C2=O)c(C)c1 (stereo not drawn) [Compound A31] | – | – | – | – | – | – | – | – | – | – | – | – | – | – | – | – | pest or weed control at 250 g/ha (Avena fatua (AVEFA); post-emergence, 360 h, Rate 250 g/ha, post-emergence, assessed visually 15 DAA, 100%=total damage, 0%=no damage, read-out: Post-emergence herbicidal activity (percentage phytotoxicity) AVEFA POST): 100%; pest or weed control at 250 g/ha (Avena fatua (AVEFA); pre-emergence, 480 h, Rate 250 g/ha, pre-emergence, assessed visually 20 DAA, 100%=total damage, 0%=no damage, read-out: Pre-emergence herbicidal activity (percentage phytotoxicity) AVEFA PRE): 90%; pest or weed control at 250 g/ha ([1]; post-emergence, 360 h, Rate 250 g/ha, post-emergence, assessed visually 15 DAA, 100%=total damage, 0%=no damage, read-out: Post-emergence herbicidal activity (percentage phytotoxicity) ALOMY POST): 100%; pest or weed control at 250 g/ha ([1]; pre-emergence, 480 h, Rate 250 g/ha, pre-emergence, assessed visually 20 DAA, 100%=total damage, 0%=no damage, read-out: Pre-emergence herbicidal activity (percentage phytotoxicity) ALOMY PRE): 100%; pest or weed control at 250 g/ha (Lolium perenne (LOLPE); post-emergence, 360 h, Rate 250 g/ha, post-emergence, assessed visually 15 DAA, 100%=total damage, 0%=no damage, read-out: Post-emergence herbicidal activity (percentage phytotoxicity) LOLPE POST): 100%; pest or weed control at 250 g/ha (Lolium perenne (LOLPE); pre-emergence, 480 h, Rate 250 g/ha, pre-emergence, assessed visually 20 DAA, 100%=total damage, 0%=no damage, read-out: Pre-emergence herbicidal activity (percentage phytotoxicity) LOLPE PRE): 100%; pest or weed control at 250 g/ha ([2]; post-emergence, 360 h, Rate 250 g/ha, post-emergence, assessed visually 15 DAA, 100%=total damage, 0%=no damage, read-out: Post-emergence herbicidal activity (percentage phytotoxicity) ECHCG POST): 100%; pest or weed control at 250 g/ha ([2]; pre-emergence, 480 h, Rate 250 g/ha, pre-emergence, assessed visually 20 DAA, 100%=total damage, 0%=no damage, read-out: Pre-emergence herbicidal activity (percentage phytotoxicity) ECHCG PRE): 100%
